Measurements reported in PMC2346451 (PLoS ONE, 2008).
Where two headings read alike, the source gives them in different places.

Columns and labels:
Assay type in all cases: cell-based
mouse TRPV3 (mTRPV3) = target: T1, mouse TRPV3 (mTRPV3) (Mus musculus, UniProt Q8K424); test: Whole-cell patch clamp of mouse TRPV3 expressed in HEK-293T cells; settings: for Increase of agonist-evoked current prior to onset of inhibition: citral 1 mM, n = 7
T1 sequence (Q8K424 1-791): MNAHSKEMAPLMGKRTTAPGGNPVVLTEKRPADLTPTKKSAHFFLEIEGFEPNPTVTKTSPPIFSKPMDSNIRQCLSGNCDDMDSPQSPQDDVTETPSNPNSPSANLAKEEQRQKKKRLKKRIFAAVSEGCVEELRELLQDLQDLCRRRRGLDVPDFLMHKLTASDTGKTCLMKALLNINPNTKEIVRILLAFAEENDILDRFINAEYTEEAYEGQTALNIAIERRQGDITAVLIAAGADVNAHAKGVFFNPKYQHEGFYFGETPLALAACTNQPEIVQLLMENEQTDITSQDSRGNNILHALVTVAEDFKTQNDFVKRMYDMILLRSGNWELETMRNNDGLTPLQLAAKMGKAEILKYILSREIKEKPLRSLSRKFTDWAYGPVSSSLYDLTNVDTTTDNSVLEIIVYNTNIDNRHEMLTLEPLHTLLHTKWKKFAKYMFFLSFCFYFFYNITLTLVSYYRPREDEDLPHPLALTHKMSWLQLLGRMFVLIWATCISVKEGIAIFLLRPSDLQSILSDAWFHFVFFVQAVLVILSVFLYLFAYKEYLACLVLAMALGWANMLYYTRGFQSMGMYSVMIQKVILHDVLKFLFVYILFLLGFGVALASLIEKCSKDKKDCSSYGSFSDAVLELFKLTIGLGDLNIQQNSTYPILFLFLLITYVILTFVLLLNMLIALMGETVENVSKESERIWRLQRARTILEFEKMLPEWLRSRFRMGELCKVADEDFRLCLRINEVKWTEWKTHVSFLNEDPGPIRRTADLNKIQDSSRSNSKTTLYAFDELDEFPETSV
Procedure: (§1) Transformed human embryonic kidney-293 (HEK-293T) cells were grown in Dulbecco's modified Eagle's medium (DMEM)+F-12 supplemented with 10% fetal calf serum, and 1% penicillin/streptomycin in 5% CO2 at 37°C. Cells grown to 90% confluence in 35 mm Petri dishes were transiently transfected with plasmid DNA encoding a TRP channel construct (1 µg). Rat TRPV1 (rTRPV1) was cloned into an enhanced green fluorescent protein-containing vector (pTracer-CMV2; Invitrogen, Carlsbad, CA). Chicken TRPV1 (cTRPV1), the chicken rat TRPV1 chimera (crcTRPV1), rat TRPV2 (rTRPV2), mouse TRPV3 (mTRPV3), mouse TRPV4 (mTRPV4), rat TRPM8 (rTRPM8), and rat TRPA1 (rTRPA1), were cloned into pcDNA3 and co-transfected with enhanced green fluorescent protein (0.1 µg) to follow expression. The cTRPV1 and crcTRPV1 clones were kindly provided by Dr. David Julius. Recordings were carried out 24–36 hours after transfection. Cells were split via trypsin EDTA, plated on glass coverslips at 5–10% confluence, and used 2–3 hours later.
Electrophysiological experiments were performed using the whole-cell patch-clamp technique at room temperature. Modified Ringer's solution with low chloride and nominal calcium contained (in mM): 130 sodium hydroxide, 5 potassium chloride, 1 magnesium chloride, 10 sodium 4-(2-hydroxyethyl)-1-piperazineethanesulfonic acid, 10 2-(N-morpholino)ethanesulfonic acid, and 20 glucose (pH 7.4; 310 milli-osmolar). […] 2 mM calcium chloride was included in the external solution where noted. To activate TRPV1, the modified Ringer's solution was made at pH 5 (low pH solution) and the chloride concentration was kept to a minimum to prevent contamination of the TRPV1 currents with acid-activated chloride currents. For recordings from heterologously expressing cells, the internal pipette solution contained (in mM): 125 cesium-Methanesulfonate, 10 cesium (1.2-bis(o-aminophenoxy)ethane-N,N,N',N'-tetraacetic acid, 8 sodium chloride, 4 magnesium adenosine triphosphate, and 10 HEPES (pH 7.2; 290 mOSM; nominal free calcium concentrations). For TRPA1 and dorsal root ganglion recordings, the internal pipette solution contained (in mM): 110 cesium-Methanesulfonate, 0.5 cesium4BAPTA, 8 sodium chloride, 0.2 calcium chloride, 4 magnesium-ATP, 4 sodium-GTP, and 10 4-(2-hydroxyethyl)-1-piperazineethanesulfonic acid (pH 7.2; 290 mOSM; 100 nM free calcium internal). MaxChelator was used to calculate the free calcium concentration (http://www.stanford.edu/cpatton/maxc.html).
Recordings were obtained using an Axopatch 200B amplifier, Digidata 1322A analog-to-digital converter, and pClamp 8.01 software (Molecular Devices, Union City, CA). Data were low-pass filtered at 2 kHz and digitized at 5 kHz. Borosilicate glass pipettes (World Precision Instruments, Sarasota, FL) were typically 3 MΩ pipette resistance after fire polishing. Cell capacitance was measured for each cell, and access resistance compensated to ∼80%. Recordings were begun ∼5 minutes after initial rupture to ensure initial steady state conditions. Current-voltage (I-V) relations were obtained using a ramp protocol. Voltage ramps (400 ms) from −100 to +40 or +100 mV were applied every 1–2 seconds and the holding potential was either −70 mV or 0 mV (see Figure Legends). A 40 ms step was added at the beginning and end of the ramp (i.e. at −100 mV, +40 mV or +100 mV). Liquid junction potentials were not corrected.
The dose response curves were fit with the Hill equation, where [drawing 8] and [A] is the concentration of agonist or blocker, N is the Hill coefficient, and KD is the [A] for Imeasured/Imax = 0.5. The term apparent dissociation constant is used in place of the half concentration of excitation and inhibition. […] Averaged data are presented as mean±standard error (S.E.) throughout. Statistical analysis included paired and unpaired Student's t-test comparisons of the data; p values are reported in the text.

Chicken TRPV1 (cTRPV1) = test: Whole-cell patch clamp of chicken TRPV1 expressed in HEK-293T cells
Procedure: as §1
Electrophysiological experiments were performed using the whole-cell patch-clamp technique at room temperature. […]
Recordings were obtained using an Axopatch 200B amplifier, Digidata 1322A analog-to-digital converter, and pClamp 8.01 software (Molecular Devices, Union City, CA). […] Cell capacitance was measured for each cell, and access resistance compensated to ∼80%. […]

[1] = target: T2, rat TRPV1 tyrosine to alanine point mutant at residue 511 (Rattus norvegicus, UniProt O35433, Y511A); test: Patch clamp of capsaicin-insensitive rat TRPV1 point mutant; settings: data not shown
T2 construct: expressed in transfected cells; host or cells: HEK-293T (inferred from the general methods)
T2 sequence (O35433 whole entry Y511A): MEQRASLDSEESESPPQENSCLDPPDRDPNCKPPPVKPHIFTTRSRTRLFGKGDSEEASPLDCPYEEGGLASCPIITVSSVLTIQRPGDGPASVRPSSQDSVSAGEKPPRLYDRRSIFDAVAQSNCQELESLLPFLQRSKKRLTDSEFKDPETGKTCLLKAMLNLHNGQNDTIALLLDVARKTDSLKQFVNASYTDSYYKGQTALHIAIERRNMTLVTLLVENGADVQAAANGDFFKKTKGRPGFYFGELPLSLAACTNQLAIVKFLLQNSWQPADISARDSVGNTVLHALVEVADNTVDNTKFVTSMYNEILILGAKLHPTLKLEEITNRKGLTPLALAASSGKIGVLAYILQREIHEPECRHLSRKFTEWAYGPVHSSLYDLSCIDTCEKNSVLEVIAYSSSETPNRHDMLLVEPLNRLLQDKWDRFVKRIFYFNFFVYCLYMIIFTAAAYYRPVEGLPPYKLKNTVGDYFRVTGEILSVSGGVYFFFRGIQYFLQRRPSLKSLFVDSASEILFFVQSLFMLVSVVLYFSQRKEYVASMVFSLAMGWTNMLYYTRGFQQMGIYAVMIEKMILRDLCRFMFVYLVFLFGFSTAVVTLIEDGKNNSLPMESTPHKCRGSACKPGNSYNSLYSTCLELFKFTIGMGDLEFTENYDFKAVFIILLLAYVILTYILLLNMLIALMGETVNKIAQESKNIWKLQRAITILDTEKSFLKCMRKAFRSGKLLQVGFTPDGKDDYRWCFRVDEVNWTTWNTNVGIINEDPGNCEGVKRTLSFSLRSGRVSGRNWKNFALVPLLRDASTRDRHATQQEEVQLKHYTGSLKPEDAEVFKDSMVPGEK

## CC(C)=CCCC(C)=CC=O [citral, 3,7-dimethyl-2,6-octadienal]
Mouse TRPV3 (mTRPV3)
  Hill coefficient (activation): 22.3
  Reversibility of citral inhibition of agonist-evoked current: essentially irreversible
Mouse TRPV3 (mTRPV3); +100 mV
  Increase of agonist-evoked current prior to onset of inhibition: 1.3±0.1 fold
Mouse TRPV3 (mTRPV3); −100 mV
  Increase of agonist-evoked current prior to onset of inhibition: 1.7±0.3 fold
Mouse TRPV3 (mTRPV3); citral activation, nominal external calcium, read-out: Activation KD, app
  Kd: 926 µM
Mouse TRPV3 (mTRPV3); citral block of 2-aminoethyldiphenyl borate-evoked current
  Hill coefficient (inhibition): 4.0
Mouse TRPV3 (mTRPV3); citral block of current evoked by 700 µM 2-aminoethyldiphenyl borate, read-out: Inhibition KD, app
  Kd: 465 µM
Mouse TRPV3 (mTRPV3); fold larger, −40 mV, n = 6
  Agonist efficacy I2-APB (100 µM)/Icitral (1 mM): I2-APB (100 µM)/Icitral (1 mM) 25±14 fold larger (n = 6; −40 mV)
Mouse TRPV3 (mTRPV3); n = 6
  Time for >50% inhibition of peak TRP current in continued presence of citral: ≤ 6 s
Mouse TRPV3 (mTRPV3); −40 mV
  Increase of inward ITRPV3 above baseline: 38 fold
Chicken TRPV1 (cTRPV1); n = 6
  Activation of cTRPV1 current: did not activate
Chicken TRPV1 (cTRPV1); pH 5
  Effect on cTRPV1 currents activated by pH 5 solution: reversibly inhibited
[1]
  Response of capsaicin-insensitive TRPV1 point mutant: remained responsive to citral
